In patent publication US12281328B2, “Photoreceptor cells for the treatment of retinal diseases” (Hadasit Medical Research Services and Development Ltd., priority 2017, dated 2025):

Tested on: hESC-derived spheroid bodies (SBs), HAD-C102
Experiment: Real-time PCR of eye field, retinal progenitor and photoreceptor progenitor markers in SBs cultured with factor combinations
Type: cell-based, human
Protocol: SBs were generated under non-adherent conditions (day 0) from cord-feeder-conditioned media culture systems, or from feeder free laminin 521 culture systems, as described above. SBs were cultured in the following medium: […]® minus medium (Biological industries, Beit Haemek, Israel) supplemented with 50 U/ml penicillin and 50 μg/ml streptomycin (Gibco-BRL, Carlsbad, Calif.). In the initial 0 to 6 days of SBs culture (under non-adherent conditions), the medium was supplemented with 10 mM nicotinamide (Sigma, St. Louis, Mo.). It was further supplemented with the addition of the following factors in different combinations: 10 mM nicotinamide (Sigma, St. Louis, Mo.), 3 μM endo-IWR 1 (IWR1e; TOCRIS, a biotechne brand, Minneapolis, Minn.), 20 ng/ml bFGF (PeproTech Inc., Rocky Hill, N.J.), 5 ng/ml IGF1 (R&D Systems Inc., Minneapolis, Minn.) and 3 μM CHIR99021 (CHIR; PeproTech Inc., Rocky Hill, N.J.).
Real-time PCR was used to determine the expression of eye field and retinal progenitor markers and photoreceptor progenitor markers. mRNA was extracted using QUICK-RNA Micro Prep, Zymo Research (Cat #R1051) and the RT reaction was accomplished with QSCRIPT™ reverse transcriptase (Quanta BioScience Inc., Gaithersburg, Md.). The levels of transcripts were monitored using commercially available TAQMAN™ Assay-on-Demand Gene Expression Products (Applies Biosystems, Foster City, Calif.). The expression of eye field and photoreceptor precursor markers were analyzed at time points of 14 days to 8 weeks. At Time point 0 (TO), the derivation of SBs and the beginning of their culture in non-adherent culture dishes were initiated.
SBs were treated with combinations of NIC, bFGF, CHIR and IGF1 for 1 month. At the end of these culture periods, the expression of eye field and retinal progenitor markers (Rx, Six3, Six6, Chx10) and photoreceptor progenitor markers (NRL, CRX) was analyzed by Real-time PCR. […] FIG. 3 through FIG. 8 show graphs illustrating marker expression of Six3, Six6, Chx10, Rx, CRX, and NRL, respectively, in SBs cultured in NIC+bFGF or NIC+IGF or NIC+bFGF+CHIR for 4 weeks. Relative quantity of gene expression is plotted against different conditions. FIG. 9 through FIG. 14 show graphs illustrating marker expression of Six3, Six6, Chx10, Rx, CRX, and NRL, respectively, in SBs cultured in NIC+bFGF or NIC+bFGF+CHIR for 17 days. The control, HADC102, was comprised of undifferentiated HAD-C102 cells cultured for 6-7 days in […]® hPSC XF*Xeno-free medium for Human Pluripotent Stem Cells (Biological Industries).

Compound: O=C(Nc1cccc2cccnc12)c1ccc(N2C(=O)[C@@H]3[C@H](C2=O)[C@@H]2C=C[C@H]3C2)cc1 [IWR1e, 4-[(3aR,4S,7R,7aS)-1,3,3a,4,7,7a-hexahydro-1,3-dioxo-4,7-metha-no-2H-isoindol-2-yl]-N-8-quinolinyl-benzamide]
- expression of markers of hESC-derived photoreceptor progenitors (SBs cultured 20 days, Pax6, Six3, Rx, Six6, Chx10, FIG. 21-25): induced the expression of markers of hESC-derived photoreceptor progenitors
- expression of the eye field and retinal progenitor markers Pax6, Rx, Six3, Six6 and Chx10 (compared among NIC+IWR1e, NIC, IWR1e, IWR1e+bFGF, FIG. 26-35): much lower

Compound: NC(=O)c1cccnc1 [NIC, nicotinamide]
- generation of photoreceptor cells from human pluripotent stem cells (evidenced by expression of markers of photoreceptor cells (RT-PCR)): sufficient to generate photoreceptor cells from human pluripotent stem cells

Compound: Laminin 521: laminin 521 (BioLamina) coating for feeder-free culture of hESCs before SB formation
- expression of all the markers analyzed (Rx, Pax6, Six3, Six6, Chx10) (SBs from hESCs cultured on laminin 521 vs gelatin in cord feeder conditioned medium, NIH 5 weeks, FIG. 50-58): higher
- efficiency of differentiation (initial culturing of hESC on laminin 521 vs gelatin in feeder cell conditioned medium): more efficient differentiation result
